Experimental data as given in ChEMBL document CHEMBL1944561, “Discovery and SAR exploration of a novel series of imidazo[4,5-b]pyrazin-2-ones as potent and selective mTOR kinase inhibitors” (Bioorg Med Chem Lett, 2011).

Key:
[1] = target: T1, Tyrosine-protein kinase receptor TYRO3 (Homo sapiens) (UniProt Q06418); test: Inhibition of Rse assessed as activity remaining at 10 uM
T1 sequence (whole entry): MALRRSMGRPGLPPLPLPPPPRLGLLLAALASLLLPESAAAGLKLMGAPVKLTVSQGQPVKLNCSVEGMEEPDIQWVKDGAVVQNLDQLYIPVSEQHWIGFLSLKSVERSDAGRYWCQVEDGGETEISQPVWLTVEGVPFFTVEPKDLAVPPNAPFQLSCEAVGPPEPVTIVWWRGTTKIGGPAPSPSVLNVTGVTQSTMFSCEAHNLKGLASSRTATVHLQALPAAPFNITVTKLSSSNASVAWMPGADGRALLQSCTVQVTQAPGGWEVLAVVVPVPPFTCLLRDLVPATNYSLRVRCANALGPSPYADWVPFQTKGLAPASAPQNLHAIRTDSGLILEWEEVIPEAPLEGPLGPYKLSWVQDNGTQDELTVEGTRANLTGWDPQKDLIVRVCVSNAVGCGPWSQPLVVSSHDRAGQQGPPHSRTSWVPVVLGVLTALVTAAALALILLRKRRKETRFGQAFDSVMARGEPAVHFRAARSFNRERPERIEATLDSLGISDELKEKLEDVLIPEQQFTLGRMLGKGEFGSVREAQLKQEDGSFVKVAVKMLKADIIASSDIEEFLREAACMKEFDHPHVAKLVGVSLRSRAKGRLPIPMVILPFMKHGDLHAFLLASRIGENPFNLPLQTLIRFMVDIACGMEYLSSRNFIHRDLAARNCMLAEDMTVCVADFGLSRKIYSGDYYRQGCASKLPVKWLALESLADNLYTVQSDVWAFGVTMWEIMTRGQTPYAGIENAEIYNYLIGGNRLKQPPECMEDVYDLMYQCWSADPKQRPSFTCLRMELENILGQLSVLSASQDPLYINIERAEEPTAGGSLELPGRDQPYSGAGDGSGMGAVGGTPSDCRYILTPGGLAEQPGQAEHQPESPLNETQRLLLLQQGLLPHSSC

[2] = target: Mast/stem cell growth factor receptor Kit (Homo sapiens) (UniProt P10721); test: Inhibition of cKit assessed as activity remaining at 10 uM
[3] = target: Tyrosine-protein kinase SYK (Homo sapiens) (UniProt P43405); test: Inhibition of Syk assessed as activity remaining at 10 uM
[4] = target: Dual specificity mitogen-activated protein kinase kinase 1 (Homo sapiens) (UniProt Q02750); test: Inhibition of MEK1 assessed as activity remaining at 10 uM
[5] = target: Mitogen-activated protein kinase 9 (Homo sapiens) (UniProt P45984); test: Inhibition of JNK2alpha2 assessed as activity remaining at 10 uM
[6] = target: Platelet-derived growth factor receptor alpha (Homo sapiens) (UniProt P16234); test: Inhibition of PDGFRalpha assessed as activity remaining at 10 uM
[7] = target: Insulin receptor-related protein (Homo sapiens) (UniProt P14616); test: Inhibition of IRR assessed as activity remaining at 10 uM
[8] = target: RAC-alpha serine/threonine-protein kinase (Homo sapiens) (UniProt P31749); test: Inhibition of PKB-alpha assessed as activity remaining at 10 uM
[9] = target: Tyrosine-protein kinase BTK (Homo sapiens) (UniProt Q06187); test: Inhibition of BTK assessed as activity remaining at 10 uM
[10] = target: Mitogen-activated protein kinase 1 (Homo sapiens) (UniProt P28482); test: Inhibition of MAPK1 assessed as activity remaining at 10 uM
[11] = target: Hepatocyte growth factor receptor (Homo sapiens) (UniProt P08581); test: Inhibition of Met assessed as activity remaining at 10 uM
[12] = target: Tyrosine-protein kinase Fes/Fps (Homo sapiens) (UniProt P07332); test: Inhibition of Fes assessed as activity remaining at 10 uM
[13] = test system: PC-3; test: Antiproliferative activity against human PC3 cells
[14] = Inhibition of p70S6K assessed as activity remaining at 10 uM
[15] = target: Serine/threonine-protein kinase PLK3 (Homo sapiens) (UniProt Q9H4B4); test: Inhibition of Plk3 assessed as activity remaining at 10 uM
[16] = target: T2, Calcium/calmodulin-dependent protein kinase type IV (Homo sapiens) (UniProt Q16566); test: Inhibition of CaMK4 assessed as activity remaining at 10 uM
T2 sequence (whole entry): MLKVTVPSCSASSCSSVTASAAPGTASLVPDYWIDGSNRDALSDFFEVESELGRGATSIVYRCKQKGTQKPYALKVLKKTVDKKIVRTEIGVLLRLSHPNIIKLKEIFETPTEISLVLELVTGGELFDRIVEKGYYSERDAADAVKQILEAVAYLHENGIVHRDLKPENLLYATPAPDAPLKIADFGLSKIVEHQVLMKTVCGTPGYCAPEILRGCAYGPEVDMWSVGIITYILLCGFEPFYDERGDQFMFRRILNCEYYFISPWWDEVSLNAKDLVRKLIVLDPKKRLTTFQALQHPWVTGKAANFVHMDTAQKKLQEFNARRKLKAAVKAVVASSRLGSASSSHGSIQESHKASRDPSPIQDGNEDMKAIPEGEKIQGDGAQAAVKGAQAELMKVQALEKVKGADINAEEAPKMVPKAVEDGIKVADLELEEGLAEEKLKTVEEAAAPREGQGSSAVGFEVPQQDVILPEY

[17] = Inhibition of AMPK assessed as activity remaining at 10 uM
[18] = target: T3, Protein kinase C zeta type (Homo sapiens) (UniProt Q05513); test: Inhibition of PKC-zeta assessed as activity remaining at 10 uM
T3 sequence (whole entry): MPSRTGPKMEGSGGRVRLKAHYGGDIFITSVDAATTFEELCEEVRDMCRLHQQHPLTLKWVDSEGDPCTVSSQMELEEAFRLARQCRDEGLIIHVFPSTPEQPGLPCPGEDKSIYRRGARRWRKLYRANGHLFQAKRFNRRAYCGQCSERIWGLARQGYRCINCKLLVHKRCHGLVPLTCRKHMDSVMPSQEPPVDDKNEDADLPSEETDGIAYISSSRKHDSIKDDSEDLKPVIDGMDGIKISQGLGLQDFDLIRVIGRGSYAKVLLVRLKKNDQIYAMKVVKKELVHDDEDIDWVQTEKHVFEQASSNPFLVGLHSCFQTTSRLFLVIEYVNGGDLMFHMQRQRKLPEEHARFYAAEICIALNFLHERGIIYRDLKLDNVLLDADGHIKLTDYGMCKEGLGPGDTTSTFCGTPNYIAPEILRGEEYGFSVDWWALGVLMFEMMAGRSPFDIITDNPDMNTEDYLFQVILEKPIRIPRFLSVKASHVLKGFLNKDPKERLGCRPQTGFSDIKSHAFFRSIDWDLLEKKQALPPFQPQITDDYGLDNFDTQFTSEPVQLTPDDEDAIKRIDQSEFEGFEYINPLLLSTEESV

[19] = target: Ribosomal protein S6 kinase alpha-1 (Homo sapiens) (UniProt Q15418); test: Inhibition of Rsk1 assessed as activity remaining at 10 uM

Chain of Platelet-derived growth factor receptor alpha (Homo sapiens) (P16234 whole entry): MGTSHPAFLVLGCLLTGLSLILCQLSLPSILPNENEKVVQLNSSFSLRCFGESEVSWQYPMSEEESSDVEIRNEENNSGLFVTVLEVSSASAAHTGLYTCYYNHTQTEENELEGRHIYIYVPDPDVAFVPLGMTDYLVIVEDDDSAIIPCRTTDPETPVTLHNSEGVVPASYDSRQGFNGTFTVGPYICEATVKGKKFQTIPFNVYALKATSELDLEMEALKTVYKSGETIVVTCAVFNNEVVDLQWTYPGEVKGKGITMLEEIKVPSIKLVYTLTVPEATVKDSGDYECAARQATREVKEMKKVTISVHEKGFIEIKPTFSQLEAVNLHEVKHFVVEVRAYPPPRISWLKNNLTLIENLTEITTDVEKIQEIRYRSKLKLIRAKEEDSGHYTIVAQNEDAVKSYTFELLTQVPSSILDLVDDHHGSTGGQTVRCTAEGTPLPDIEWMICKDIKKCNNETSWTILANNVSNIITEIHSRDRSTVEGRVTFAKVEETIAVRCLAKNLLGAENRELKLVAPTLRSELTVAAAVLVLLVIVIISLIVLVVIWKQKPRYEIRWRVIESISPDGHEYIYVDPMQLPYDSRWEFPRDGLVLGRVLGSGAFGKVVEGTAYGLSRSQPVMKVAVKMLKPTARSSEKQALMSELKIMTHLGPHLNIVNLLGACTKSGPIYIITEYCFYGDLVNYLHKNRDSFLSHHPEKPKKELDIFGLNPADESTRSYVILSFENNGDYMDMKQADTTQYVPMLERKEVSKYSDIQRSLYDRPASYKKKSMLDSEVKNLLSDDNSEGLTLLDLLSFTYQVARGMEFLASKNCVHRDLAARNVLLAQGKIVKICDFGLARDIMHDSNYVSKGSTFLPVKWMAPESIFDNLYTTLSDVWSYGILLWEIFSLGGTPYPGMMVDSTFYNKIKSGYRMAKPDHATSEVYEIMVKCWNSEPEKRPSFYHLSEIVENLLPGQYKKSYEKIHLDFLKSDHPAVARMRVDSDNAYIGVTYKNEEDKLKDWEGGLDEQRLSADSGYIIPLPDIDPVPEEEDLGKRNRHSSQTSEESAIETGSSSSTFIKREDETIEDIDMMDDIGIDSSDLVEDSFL
Chain of Dual specificity mitogen-activated protein kinase kinase 1 (Homo sapiens) (Q02750 whole entry): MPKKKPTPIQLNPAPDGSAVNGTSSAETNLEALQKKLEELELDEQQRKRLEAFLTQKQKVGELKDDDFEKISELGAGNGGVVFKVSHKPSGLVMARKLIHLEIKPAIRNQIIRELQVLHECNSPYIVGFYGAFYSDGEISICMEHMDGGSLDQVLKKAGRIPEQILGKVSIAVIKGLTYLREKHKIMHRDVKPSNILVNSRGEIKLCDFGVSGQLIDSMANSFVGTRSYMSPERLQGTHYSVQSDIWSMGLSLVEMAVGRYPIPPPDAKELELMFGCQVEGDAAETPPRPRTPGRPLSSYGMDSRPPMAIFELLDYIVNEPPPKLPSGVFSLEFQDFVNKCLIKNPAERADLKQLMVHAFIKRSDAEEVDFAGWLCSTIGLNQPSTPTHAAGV
Chain of Tyrosine-protein kinase Fes/Fps (Homo sapiens) (P07332 whole entry): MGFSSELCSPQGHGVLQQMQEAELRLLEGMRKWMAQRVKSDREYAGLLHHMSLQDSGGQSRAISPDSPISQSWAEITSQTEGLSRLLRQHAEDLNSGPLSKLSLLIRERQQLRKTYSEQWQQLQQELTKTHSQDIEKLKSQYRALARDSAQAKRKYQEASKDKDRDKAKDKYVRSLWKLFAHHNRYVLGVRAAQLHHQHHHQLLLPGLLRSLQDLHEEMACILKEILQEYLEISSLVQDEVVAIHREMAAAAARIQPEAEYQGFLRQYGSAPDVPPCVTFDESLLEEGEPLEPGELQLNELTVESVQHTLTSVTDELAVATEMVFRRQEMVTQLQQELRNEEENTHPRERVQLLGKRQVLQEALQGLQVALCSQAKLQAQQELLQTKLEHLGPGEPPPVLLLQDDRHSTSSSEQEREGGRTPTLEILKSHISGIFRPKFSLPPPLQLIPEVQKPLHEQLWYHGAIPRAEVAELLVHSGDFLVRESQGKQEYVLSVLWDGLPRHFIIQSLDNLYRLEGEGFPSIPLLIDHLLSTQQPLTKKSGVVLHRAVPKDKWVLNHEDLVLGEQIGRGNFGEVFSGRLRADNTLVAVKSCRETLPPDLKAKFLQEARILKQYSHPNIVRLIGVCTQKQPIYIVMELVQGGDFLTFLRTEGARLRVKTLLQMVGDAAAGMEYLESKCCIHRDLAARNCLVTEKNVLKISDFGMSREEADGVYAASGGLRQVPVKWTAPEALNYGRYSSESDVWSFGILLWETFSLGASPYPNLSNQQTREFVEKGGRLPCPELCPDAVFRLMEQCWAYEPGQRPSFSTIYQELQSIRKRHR
Chain of Mitogen-activated protein kinase 9 (Homo sapiens) (P45984 whole entry, looked up): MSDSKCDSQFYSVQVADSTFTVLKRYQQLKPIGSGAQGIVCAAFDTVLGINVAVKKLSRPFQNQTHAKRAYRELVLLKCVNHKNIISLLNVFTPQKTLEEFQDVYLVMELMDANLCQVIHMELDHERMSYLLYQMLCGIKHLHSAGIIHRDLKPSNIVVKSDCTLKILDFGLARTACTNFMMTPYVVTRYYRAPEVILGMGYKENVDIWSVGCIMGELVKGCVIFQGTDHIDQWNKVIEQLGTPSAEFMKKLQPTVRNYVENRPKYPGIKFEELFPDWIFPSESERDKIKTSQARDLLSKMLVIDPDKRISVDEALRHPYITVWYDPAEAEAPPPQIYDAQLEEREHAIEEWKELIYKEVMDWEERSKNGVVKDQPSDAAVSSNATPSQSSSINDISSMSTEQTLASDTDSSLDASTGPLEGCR
Chain of Serine/threonine-protein kinase PLK3 (Homo sapiens) (Q9H4B4 whole entry, looked up): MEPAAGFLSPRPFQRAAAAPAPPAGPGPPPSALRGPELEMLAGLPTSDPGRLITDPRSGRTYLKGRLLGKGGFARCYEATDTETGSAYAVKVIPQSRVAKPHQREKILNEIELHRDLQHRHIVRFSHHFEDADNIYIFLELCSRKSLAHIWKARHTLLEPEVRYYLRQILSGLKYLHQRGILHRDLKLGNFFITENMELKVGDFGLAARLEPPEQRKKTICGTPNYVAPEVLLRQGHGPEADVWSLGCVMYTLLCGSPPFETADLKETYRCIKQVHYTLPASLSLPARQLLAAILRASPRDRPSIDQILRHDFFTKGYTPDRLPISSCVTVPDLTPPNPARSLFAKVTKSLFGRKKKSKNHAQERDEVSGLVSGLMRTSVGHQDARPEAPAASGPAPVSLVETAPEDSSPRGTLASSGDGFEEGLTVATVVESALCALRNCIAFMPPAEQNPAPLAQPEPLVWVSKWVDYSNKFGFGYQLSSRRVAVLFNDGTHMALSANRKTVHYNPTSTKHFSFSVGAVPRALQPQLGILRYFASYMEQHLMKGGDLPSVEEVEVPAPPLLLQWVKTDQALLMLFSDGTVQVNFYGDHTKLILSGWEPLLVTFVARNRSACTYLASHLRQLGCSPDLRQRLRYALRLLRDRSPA
Chain of Tyrosine-protein kinase BTK (Homo sapiens) (Q06187 whole entry): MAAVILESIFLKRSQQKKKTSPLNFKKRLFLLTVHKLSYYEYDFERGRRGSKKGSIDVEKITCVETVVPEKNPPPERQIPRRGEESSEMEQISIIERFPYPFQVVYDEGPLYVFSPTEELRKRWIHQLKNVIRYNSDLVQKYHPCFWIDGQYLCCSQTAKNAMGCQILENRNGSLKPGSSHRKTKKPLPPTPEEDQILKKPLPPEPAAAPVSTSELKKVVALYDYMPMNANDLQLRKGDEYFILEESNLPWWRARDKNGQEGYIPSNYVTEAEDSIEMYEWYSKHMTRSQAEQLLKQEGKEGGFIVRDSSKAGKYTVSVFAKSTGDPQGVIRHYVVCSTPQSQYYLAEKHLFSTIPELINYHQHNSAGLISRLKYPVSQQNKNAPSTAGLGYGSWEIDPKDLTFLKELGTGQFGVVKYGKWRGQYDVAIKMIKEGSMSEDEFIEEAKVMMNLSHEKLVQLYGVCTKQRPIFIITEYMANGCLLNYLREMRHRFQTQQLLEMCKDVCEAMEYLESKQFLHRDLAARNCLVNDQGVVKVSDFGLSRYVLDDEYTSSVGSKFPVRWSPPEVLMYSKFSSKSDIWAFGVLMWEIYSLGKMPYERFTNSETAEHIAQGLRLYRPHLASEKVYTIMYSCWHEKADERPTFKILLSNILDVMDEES
Chain of Mitogen-activated protein kinase 1 (Homo sapiens) (P28482 whole entry): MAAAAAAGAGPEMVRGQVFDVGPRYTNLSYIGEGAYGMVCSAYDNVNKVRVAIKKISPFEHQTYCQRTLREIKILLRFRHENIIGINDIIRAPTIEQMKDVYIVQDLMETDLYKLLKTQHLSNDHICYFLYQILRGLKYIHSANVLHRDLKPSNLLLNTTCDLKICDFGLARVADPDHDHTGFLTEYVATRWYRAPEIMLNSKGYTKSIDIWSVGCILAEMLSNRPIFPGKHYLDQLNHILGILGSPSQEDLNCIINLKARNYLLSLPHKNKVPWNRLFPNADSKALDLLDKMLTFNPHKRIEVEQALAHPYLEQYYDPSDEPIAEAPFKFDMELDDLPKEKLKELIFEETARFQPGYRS
Chain of RAC-alpha serine/threonine-protein kinase (Homo sapiens) (P31749 whole entry): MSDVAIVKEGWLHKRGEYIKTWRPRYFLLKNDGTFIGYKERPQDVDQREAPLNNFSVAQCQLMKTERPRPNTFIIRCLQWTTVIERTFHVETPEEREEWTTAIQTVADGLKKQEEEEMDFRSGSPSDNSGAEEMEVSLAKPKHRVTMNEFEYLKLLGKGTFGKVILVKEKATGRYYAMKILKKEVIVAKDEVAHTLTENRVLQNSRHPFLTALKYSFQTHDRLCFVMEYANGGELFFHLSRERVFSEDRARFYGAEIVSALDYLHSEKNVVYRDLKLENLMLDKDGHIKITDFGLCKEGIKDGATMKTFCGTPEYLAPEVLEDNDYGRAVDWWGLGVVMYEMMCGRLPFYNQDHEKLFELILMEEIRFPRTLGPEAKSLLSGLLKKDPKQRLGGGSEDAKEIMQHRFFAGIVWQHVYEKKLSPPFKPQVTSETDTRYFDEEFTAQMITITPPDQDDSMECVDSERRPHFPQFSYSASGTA

SMILES	Activity [1] [%]	Activity [2] [%]	Activity [3] [%]	Activity [4] [%]	Activity [5] [%]	Activity [6] [%]	Activity [7] [%]	Activity [8] [%]	Activity [9] [%]	Activity [10] [%]	Activity [11] [%]	Activity [12] [%]	IC50 [13] [nM]	Activity [14] [%]	Activity [15] [%]	Activity [16] [%]	Activity [17] [%]	Activity [18] [%]	Activity [19] [%]
O=c1[nH]c2ncc(-c3ccc(-c4nc[nH]n4)cc3)nc2n1CC1CCOCC1	86	95	48	84	79	94	90	97	90	86	92	89	1370	96	108	103	101	94	93
O=c1[nH]c2ncc(-c3ccc4[nH]cnc4c3)nc2n1CC1CCCCC1	88	94	40	79	85	85	92	92	88	110	66	88	1160	86	94	101	76	75	74
CC(C)(O)c1ccc(-c2cnc3[nH]c(=O)n(CC4CCCCC4)c3n2)cc1	74	83	95	82	110	93	89	94	84	95	94	81	1380	99	89	99	89	91	89
